# Measured values reported in ChEMBL document CHEMBL5724806, “Unraveling interindividual differences and functional consequences of gut microbial metabolism of immunosuppressants” (2024).
# Legend:
# Assay type in all cases: ADME
# [1] = (§1) The drug is tested on the gut metagenome community of A-05 with ENA study accession number: PRJEB31790 for biotransformation under microaerobic condition. The drug concentrations were measured over 7 timepoints collected between 0 and 12 hours of incubation by liquid-chromatography-coupled mass spectrometry (LC–MS); set-up: dose 5 uM, timepoint 0, 0.75, 1.5, 3, 6, 9, 12 hours; details: 5 µM
# [2] = The drug is tested on Gemella haemolysans strain: DSM107751 for biotransformation under microaerobic condition. The drug concentrations were measured over 6 timepoints collected between 0 and 12 hours of incubation by liquid-chromatography-coupled mass spectrometry (LC–MS); set-up: dose 5 uM, timepoint 0, 1.5, 3, 6, 9, 12 hours; details: 5 µM
# [3] = as §1, with “A-03” for “A-05”; set-up: dose 5 uM, timepoint 0, 0.75, 1.5, 3, 6, 9, 12 hours; details: 5 µM
# [4] = as §1, with “A-07” for “A-05”, “anaerobic” for “microaerobic”; set-up: dose 5 uM, timepoint 0, 0.75, 1.5, 3, 6, 9, 12 hours; details: 5 µM
# [5] = The drug is tested on Alloscardovia omnicolens strain: DSM21503 for biotransformation under microaerobic condition. The drug concentrations were measured over 6 timepoints collected between 0 and 12 hours of incubation by liquid-chromatography-coupled mass spectrometry (LC–MS); set-up: dose 5 uM, timepoint 0, 1.5, 3, 6, 9, 12 hours; details: 5 µM
# [6] = as §1, with “A-06” for “A-05”; set-up: dose 5 uM, timepoint 0, 0.75, 1.5, 3, 6, 9, 12 hours; details: 5 µM
# [7] = The drug is tested on Bacteroides uniformis strain: DSM6597 for biotransformation under anaerobic condition. The drug concentrations were measured over 6 timepoints collected between 0 and 12 hours of incubation by liquid-chromatography-coupled mass spectrometry (LC–MS); set-up: dose 5 uM, timepoint 0, 1.5, 3, 6, 9, 12 hours; details: 5 µM
# [8] = as §1, with “A-09” for “A-05”, “anaerobic” for “microaerobic”; set-up: dose 5 uM, timepoint 0, 0.75, 1.5, 3, 6, 9, 12 hours; details: 5 µM
# [9] = The drug is tested on Streptococcus sanguinis strain: DSM20567 for biotransformation under microaerobic condition. The drug concentrations were measured over 6 timepoints collected between 0 and 12 hours of incubation by liquid-chromatography-coupled mass spectrometry (LC–MS); set-up: dose 5 uM, timepoint 0, 1.5, 3, 6, 9, 12 hours; details: 5 µM
# [10] = as §1, with “P-02” for “A-05”; set-up: dose 5 uM, timepoint 0, 0.75, 1.5, 3, 6, 9, 12 hours; details: 5 µM
# [11] = as §1, with “A-01” for “A-05”; set-up: dose 5 uM, timepoint 0, 0.75, 1.5, 3, 6, 9, 12 hours; details: 5 µM
# [12] = The drug is tested on Lactobacillus ruminis strain: ATCC25644 for biotransformation under anaerobic condition. The drug concentrations were measured over 6 timepoints collected between 0 and 12 hours of incubation by liquid-chromatography-coupled mass spectrometry (LC–MS); set-up: dose 5 uM, timepoint 0, 1.5, 3, 6, 9, 12 hours; details: ligilactobacillus ruminis, 5 µM
# [13] = The drug is tested on Collinsella aerofaciens strain: DSM3979 for biotransformation under anaerobic condition. The drug concentrations were measured over 6 timepoints collected between 0 and 12 hours of incubation by liquid-chromatography-coupled mass spectrometry (LC–MS); set-up: dose 5 uM, timepoint 0, 1.5, 3, 6, 9, 12 hours; details: 5 µM
# [14] = The drug is tested on Bacteroides ovatus strain: ATCC 8483 for biotransformation under anaerobic condition. The drug concentrations were measured over 6 timepoints collected between 0 and 12 hours of incubation by liquid-chromatography-coupled mass spectrometry (LC–MS); set-up: dose 5 uM, timepoint 0, 1.5, 3, 6, 9, 12 hours; details: 5 µM
# [15] = as §1, with “A-01” for “A-05”, “anaerobic” for “microaerobic”; set-up: dose 5 uM, timepoint 0, 0.75, 1.5, 3, 6, 9, 12 hours; details: 5 µM
# [16] = The drug is tested on Streptococcus anginosus strain: DSM20563 for biotransformation under microaerobic condition. The drug concentrations were measured over 6 timepoints collected between 0 and 12 hours of incubation by liquid-chromatography-coupled mass spectrometry (LC–MS); set-up: dose 5 uM, timepoint 0, 1.5, 3, 6, 9, 12 hours; details: 5 µM
# [17] = The drug is tested on Blautia hansenii strain: DSM20583 for biotransformation under anaerobic condition. The drug concentrations were measured over 6 timepoints collected between 0 and 12 hours of incubation by liquid-chromatography-coupled mass spectrometry (LC–MS); set-up: dose 5 uM, timepoint 0, 1.5, 3, 6, 9, 12 hours; details: 5 µM
# [18] = The drug is tested on Bacteroides caccae strain: DSM19024 for biotransformation under anaerobic condition. The drug concentrations were measured over 6 timepoints collected between 0 and 12 hours of incubation by liquid-chromatography-coupled mass spectrometry (LC–MS); set-up: dose 5 uM, timepoint 0, 1.5, 3, 6, 9, 12 hours; details: 5 µM
# [19] = The drug is tested on Bacteroides fragilis strain: DSM2151 for biotransformation under anaerobic condition. The drug concentrations were measured over 6 timepoints collected between 0 and 12 hours of incubation by liquid-chromatography-coupled mass spectrometry (LC–MS); set-up: dose 5 uM, timepoint 0, 1.5, 3, 6, 9, 12 hours; details: 5 µM
# [20] = as §1, with “anaerobic” for “microaerobic”; set-up: dose 5 uM, timepoint 0, 0.75, 1.5, 3, 6, 9, 12 hours; details: 5 µM
# [21] = The drug is tested on Capnocytophaga ochracea strain: DSM7271 for biotransformation under microaerobic condition. The drug concentrations were measured over 6 timepoints collected between 0 and 12 hours of incubation by liquid-chromatography-coupled mass spectrometry (LC–MS); set-up: dose 5 uM, timepoint 0, 1.5, 3, 6, 9, 12 hours; details: 5 µM
# [22] = The drug is tested on Lactobacillus reuteri strain: DSM20016 for biotransformation under microaerobic condition. The drug concentrations were measured over 6 timepoints collected between 0 and 12 hours of incubation by liquid-chromatography-coupled mass spectrometry (LC–MS); set-up: dose 5 uM, timepoint 0, 1.5, 3, 6, 9, 12 hours; details: limosilactobacillus reuteri, 5 µM
# [23] = as §1, with “A-08” for “A-05”, “anaerobic” for “microaerobic”; set-up: dose 5 uM, timepoint 0, 0.75, 1.5, 3, 6, 9, 12 hours; details: 5 µM
# [24] = as §1, with “P-04” for “A-05”, “anaerobic” for “microaerobic”; set-up: dose 5 uM, timepoint 0, 0.75, 1.5, 3, 6, 9, 12 hours; details: 5 µM
# [25] = The drug is tested on Enterococcus faecalis strain: ATCC29212 for biotransformation under microaerobic condition. The drug concentrations were measured over 6 timepoints collected between 0 and 12 hours of incubation by liquid-chromatography-coupled mass spectrometry (LC–MS); set-up: dose 5 uM, timepoint 0, 1.5, 3, 6, 9, 12 hours; details: 5 µM
# [26] = The drug is tested on Eubacterium rectale strain: DSM17629 for biotransformation under anaerobic condition. The drug concentrations were measured over 6 timepoints collected between 0 and 12 hours of incubation by liquid-chromatography-coupled mass spectrometry (LC–MS); set-up: dose 5 uM, timepoint 0, 1.5, 3, 6, 9, 12 hours; details: agathobacter rectalis, 5 µM
# [27] = The drug is tested on Lactobacillus fermentum strain: DSM20052 for biotransformation under anaerobic condition. The drug concentrations were measured over 6 timepoints collected between 0 and 12 hours of incubation by liquid-chromatography-coupled mass spectrometry (LC–MS); set-up: dose 5 uM, timepoint 0, 1.5, 3, 6, 9, 12 hours; details: limosilactobacillus fermentum, 5 µM
# [28] = The drug is tested on Clostridium scindens strain: DSM5676 for biotransformation under anaerobic condition. The drug concentrations were measured over 6 timepoints collected between 0 and 12 hours of incubation by liquid-chromatography-coupled mass spectrometry (LC–MS); set-up: dose 5 uM, timepoint 0, 1.5, 3, 6, 9, 12 hours; details: 5 µM
# [29] = The drug is tested on Lactobacillus fermentum strain: DSM20052 for biotransformation under microaerobic condition. The drug concentrations were measured over 6 timepoints collected between 0 and 12 hours of incubation by liquid-chromatography-coupled mass spectrometry (LC–MS); set-up: dose 5 uM, timepoint 0, 1.5, 3, 6, 9, 12 hours; details: limosilactobacillus fermentum, 5 µM
# [30] = The drug is tested on Actinomyces naeslundi strain: DSM43013 for biotransformation under microaerobic condition. The drug concentrations were measured over 6 timepoints collected between 0 and 12 hours of incubation by liquid-chromatography-coupled mass spectrometry (LC–MS); set-up: dose 5 uM, timepoint 0, 1.5, 3, 6, 9, 12 hours; details: actinomyces naeslundii, 5 µM
Compound,Bacterial Biotransformation [1],Bacterial Biotransformation [2],Bacterial Biotransformation [3],Bacterial Biotransformation [4],Bacterial Biotransformation [5],Bacterial Biotransformation [6],Bacterial Biotransformation [7],Bacterial Biotransformation [8],Bacterial Biotransformation [9],Bacterial Biotransformation [10],Bacterial Biotransformation [11],Bacterial Biotransformation [12],Bacterial Biotransformation [13],Bacterial Biotransformation [14],Bacterial Biotransformation [15],Bacterial Biotransformation [16],Bacterial Biotransformation [17],Bacterial Biotransformation [18],Bacterial Biotransformation [19],Bacterial Biotransformation [20],further results
COc1c(C)c2c(c(O)c1C/C=C(\C)CCC(=O)OCCN1CCOCC1)C(=O)OC2 [MYCOPHENOLATE MOFETIL],Compound metabolized,Compound metabolized,Compound metabolized,Compound metabolized,Compound NOT metabolized,Compound metabolized,Compound metabolized,Compound metabolized,Compound metabolized,Compound metabolized,Compound metabolized,Compound metabolized,Compound metabolized,Compound metabolized,Compound metabolized,Compound metabolized,Compound NOT metabolized,Compound metabolized,Compound NOT metabolized,Compound metabolized,Bacterial Biotransformation [21]: Compound metabolized; Bacterial Biotransformation [22]: Compound NOT metabolized; Bacterial Biotransformation [23]: Compound metabolized; Bacterial Biotransformation [24]: Compound metabolized; Bacterial Biotransformation [25]: Compound metabolized; Bacterial Biotransformation [26]: Compound NOT metabolized; Bacterial Biotransformation [27]: Compound NOT metabolized; Bacterial Biotransformation [28]: Compound NOT metabolized; Bacterial Biotransformation [29]: Compound metabolized; Bacterial Biotransformation [30]: Compound NOT metabolized
COc1c(C)c2c(c(O)c1C/C=C(\C)CCC(=O)O)C(=O)OC2 [MYCOPHENOLIC ACID],Compound NOT metabolized,Compound NOT metabolized,Compound NOT metabolized,Compound NOT metabolized,Compound NOT metabolized,Compound NOT metabolized,Compound NOT metabolized,Compound NOT metabolized,Compound NOT metabolized,Compound NOT metabolized,Compound NOT metabolized,Compound NOT metabolized,Compound NOT metabolized,Compound NOT metabolized,Compound NOT metabolized,Compound NOT metabolized,Compound NOT metabolized,Compound NOT metabolized,Compound NOT metabolized,Compound NOT metabolized,Bacterial Biotransformation [21]: Compound NOT metabolized; Bacterial Biotransformation [22]: Compound NOT metabolized; Bacterial Biotransformation [23]: Compound NOT metabolized; Bacterial Biotransformation [24]: Compound NOT metabolized; Bacterial Biotransformation [25]: Compound NOT metabolized; Bacterial Biotransformation [26]: Compound NOT metabolized; Bacterial Biotransformation [27]: Compound NOT metabolized; Bacterial Biotransformation [28]: Compound NOT metabolized; Bacterial Biotransformation [29]: Compound NOT metabolized; Bacterial Biotransformation [30]: Compound NOT metabolized
C[C@]12C=CC(=O)C=C1CC[C@@H]1[C@@H]2[C@@H](O)C[C@@]2(C)[C@H]1CC[C@]2(O)C(=O)CO [PREDNISOLONE],Compound metabolized,Compound NOT metabolized,Compound metabolized,Compound metabolized,Compound NOT metabolized,Compound metabolized,Compound NOT metabolized,Compound metabolized,Compound NOT metabolized,Compound metabolized,Compound metabolized,Compound NOT metabolized,Compound NOT metabolized,Compound NOT metabolized,Compound metabolized,Compound NOT metabolized,Compound NOT metabolized,Compound NOT metabolized,Compound NOT metabolized,Compound metabolized,Bacterial Biotransformation [21]: Compound NOT metabolized; Bacterial Biotransformation [22]: Compound NOT metabolized; Bacterial Biotransformation [23]: Compound metabolized; Bacterial Biotransformation [24]: Compound metabolized; Bacterial Biotransformation [25]: Compound NOT metabolized; Bacterial Biotransformation [26]: Compound NOT metabolized; Bacterial Biotransformation [27]: Compound NOT metabolized; Bacterial Biotransformation [28]: Compound metabolized; Bacterial Biotransformation [29]: Compound NOT metabolized; Bacterial Biotransformation [30]: Compound NOT metabolized
